Test results: patent publication US9371295B2, “Compounds for use in the treatment of disorders that are ameliorated by inhibition of HDAC” (IRBM—Science Park S.p.A., priority 2012, dated 2016)

Columns and labels:
K562 cells [1] = experiment: Erythroid differentiation of K562 cells by benzidine staining; assay type: cell-based, human
Experimental: (§1) The biological activity of the compounds of the present application was evaluated by examining the capacity to modulate the expression of γ-globin genes in the human K562 cell line, which is capable of differentiating in the erythroid manner by expressing genes for γ-globin if treated with modifiers of the biological response that are suitable for the purpose (Bianchi et al, J. Haematol., 113, 4, p. 951-961, 2001). The human K562 cells were cultured in RPMI 1640 medium (Sigma, St Louis, Mo., USA) supplemented with 10% foetal bovine serum (FBS; Analitical de Mori, Milan, Italy), 100 units/mL penicillin and 100 μg/mL streptomycin. Cell growth was determined according to cell number/ml, using a cell counter (Coulter Electronics, Hialeah, Fla., USA). For experiments, K562 cell cultures were initiated at 3×10^4/mL and the chemical inducers at the indicated concentrations added. Following 3-5 days incubation without a medium change erythroid differentiation was determined by staining the cells in a solution containing 0.2% benzidine in 0.5 M glacial acetic acid, 10% H2O2. Benzidine positivity indicates the presence of intracellular Hb.
(§2) The erythroid differentiation of K562 cells was investigated following treatment with selected compounds of the invention. The effect on cell proliferation was first determined for all tested molecules by culture of K562 cells in the presence of increasing concentration of the compounds. The cell number per sample was then determined after 3, 4 and 5 days. The IC50 values reported in Table 3 for the antiproliferative effect were calculated from the concentration of the compounds necessary to decrease the cell number to 50% of the values obtained in control untreated K562 cell cultures, after a 5 days culture period. Erythroid differentiation was measured by benzidine staining after 5, 6 and 7 days of cell culture and by quantitative reverse transcriptase polymerase-chain reaction (RT-qPCR) to quantify the expression of γ-globin mRNA. Different concentrations of tested compounds were employed because of their differing antiproliferative effects; accordingly, concentrations were chosen to maximize the erythroid induction effect without extensive reduction of cell viability. In Table 3 the % of benzidine positive cells and the increase in γ-globin mRNA assayed by RT-qPCR after 6 days of culture period are reported.
Table 4 reports induction of erythroid differentiation in K562 cells treated with an optimized concentration of the compound 2 in comparison with known inducers. Compound 2 is able to stimulate an increase of the proportion of benzidine-positive (hemoglobin producing) K562 cells. This is associated with an increase of the expression of γ-globin mRNA.

HDAC in Hela cells = experiment: HDAC Hela Cell Based assay
HDAC1 = molecular target: T1, HDAC1 (Homo sapiens, UniProt Q13547); experiment: HDAC1 assay (Fluor-de-Lys fluorescent deacetylase assay); assay type: biochemical; settings: read-out: hHDAC IC50
T1 construct: made in house
In short: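 Serially diluted compounds were pre-incubated with purified FLAG-tagged HDAC1 (1-2 nM final; from transfected HeLa cells) or HeLa nuclear extract, then given the Fluor-de-Lys acetyl-lysine substrate/developer; deacetylation read as fluorescence. Reactions were stopped with TSA (3 uM final).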

K562 cells [2] = experiment: Antiproliferative effect on K562 cells (cell number after 5 days); assay type: cell-based; settings: Homo sapiens, 120 h, 5 days culture, average of three experiments
Experimental: as §1, §2

T1 sequence (Q13547 whole entry): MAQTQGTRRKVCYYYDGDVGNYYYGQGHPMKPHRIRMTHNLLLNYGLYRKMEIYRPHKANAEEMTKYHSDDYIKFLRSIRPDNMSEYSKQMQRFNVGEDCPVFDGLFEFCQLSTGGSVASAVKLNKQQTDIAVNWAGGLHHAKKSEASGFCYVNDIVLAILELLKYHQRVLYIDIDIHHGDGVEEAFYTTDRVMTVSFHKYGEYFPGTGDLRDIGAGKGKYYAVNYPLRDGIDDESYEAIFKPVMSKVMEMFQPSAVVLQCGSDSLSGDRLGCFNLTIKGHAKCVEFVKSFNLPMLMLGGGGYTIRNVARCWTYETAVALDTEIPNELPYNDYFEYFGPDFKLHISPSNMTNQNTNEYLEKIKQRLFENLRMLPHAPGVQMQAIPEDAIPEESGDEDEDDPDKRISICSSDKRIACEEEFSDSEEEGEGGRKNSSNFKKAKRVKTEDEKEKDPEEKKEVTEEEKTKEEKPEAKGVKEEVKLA

SMILES | IC50 (HDAC in Hela cells) [nM] | IC50 (HDAC1) [nM] | IC50 (K562 cells [2]) [nM] | further results
CCC(=O)CCCCC[C@H](NC(=O)C(=O)N1CCN(C)CC1)c1ncc(-c2cc3ccccc3nc2OC)o1 [Compound 37, (S)-N-(1-(5-(2-methoxyquinolin-3-yl)oxazol-2-yl)-7-oxononyl)-2-(4-methylpiperazin-1-yl)-2-oxoacetamide] | 100 to 1000 | < 100 | 600 | % of benzidine positive cells after 6 days (K562 cells [1]; 1600 nM): 16%
CCC(=O)CCCCC[C@H](NC(=O)C1(F)CN(C)C1)c1ncc(-c2cc3ccccc3nc2OC)o1 [Compound 67, (S)-3-fluoro-N-(1-(5-(2-methoxyquinolin-3-yl)oxazol-2-yl)-7-oxononyl)-1-methylazetidine-3-carboxamide] | 100 to 1000 | < 100 | 950 | % of benzidine positive cells after 6 days (K562 cells [1]; 1800 nM): 12%
CCC(=O)CCCCC[C@H](NC(=O)Cn1nc(C)nc1C)c1ncc(-c2cc3ccccc3nc2OC)o1 [Compound 80, (S)-2-(3,5-dimethyl-1H-1,2,4-triazol-1-yl)-N-(1-(5-(2-methoxyquinolin-3-yl)oxazol-2-yl)-7-oxononyl)acetamide] | 100 to 1000 | < 100 | 250 | % of benzidine positive cells after 6 days (K562 cells [1]; 200 nM): 1%
CCC(=O)CCCCC[C@H](NC(=O)C1CCN(C)CC1)c1ncc(-c2cc3ccccc3n(C)c2=O)o1 [Compound 109, (S)-1-methyl-N-(1-(5-(1-methyl-2-oxo-1,2-dihydroquinolin-3-yl)oxazol-2-yl)-7-oxononyl)piperidine-4-carboxamide] | < 100 | < 100 | > 50 | % of benzidine positive cells after 6 days (K562 cells [1]; 60 nM): 1.5%
CCC(=O)CCCCC[C@H](NC(=O)c1cncs1)c1ncc(-c2cc3ccccc3n(C)c2=O)o1 [Compound 110, (S)-N-(1-(5-(1-methyl-2-oxo-1,2-dihydroquinolin-3-yl)oxazol-2-yl)-7-oxononyl)thiazole-5-carboxamide] | < 100 | < 100 | 200 | % of benzidine positive cells after 6 days (K562 cells [1]; 300 nM): 5%
CCC(=O)CCCCC[C@H](NC(=O)C1(N(C)C)CCCC1)c1ncc(-c2cc3ccccc3n(C)c2=O)o1 [Compound 111, (S)-1-(dimethylamino)-N-(1-(5-(1-methyl-2-oxo-1,2-dihydroquinolin-3-yl)oxazol-2-yl)-7-oxononyl)cyclopentanecarboxamide] | < 100 | < 100 | 47 | % of benzidine positive cells after 6 days (K562 cells [1]; 60 nM): 6%

Second part, led by results:

IC50 (HDAC in Hela cells) [nM] | IC50 (HDAC1) [nM] | IC50 (K562 cells [2]) [nM] | SMILES | further results
< 100 | < 100 | 75 | CCC(=O)CCCCC[C@H](NC(=O)C1CN(C)C1)c1ncc(-c2cc3ccccc3nc2OC)o1 [Compound 2, (S)-N-(1-(5-(2-methoxyquinolin-3-yl)oxazol-2-yl)-7-oxononyl)-1-methylazetidine-3-carboxamide] | % of benzidine positive cells after 6 days (K562 cells [1]; 70 nM): 10%; Benzidine positive cells (%) (K562 cells [1]; optimized concentration, mean ± SD of six experiments): 25 ± 3.5%
< 100 | < 100 | > 400 | CCC(=O)CCCCC[C@H](NC(=O)c1cnc(CN2CCCC2)s1)c1ncc(-c2cc3ccccc3nc2OC)o1 [Compound 82, (S)-N-(1-(5-(2-methoxyquinolin-3-yl)oxazol-2-yl)-7-oxononyl)-2-(pyrrolidin-1-ylmethyl)thiazole-5-carboxamide] | % of benzidine positive cells after 6 days (K562 cells [1]; 260 nM): 4.5%
< 100 | < 100 | 50 | CCC(=O)CCCCC[C@H](NC(=O)C1CN(C)C1)c1ncc(-c2cc3ccccc3n(C)c2=O)o1 [Compound 92, (S)-1-methyl-N-(1-(5-(1-methyl-2-oxo-1,2-dihydroquinolin-3-yl)oxazol-2-yl)-7-oxononyl)azetidine-3-carboxamide] | % of benzidine positive cells after 6 days (K562 cells [1]; 40 nM): 8%
< 100 | < 100 | 41 | CCC(=O)CCCCC[C@H](NC(=O)CCN(C)C)c1ncc(-c2cc3ccccc3n(C)c2=O)o1 [Compound 106, (S)-3-(dimethylamino)-N-(1-(5-(1-methyl-2-oxo-1,2-dihydroquinolin-3-yl)oxazol-2-yl)-7-oxononyl)propanamide] | % of benzidine positive cells after 6 days (K562 cells [1]; 60 nM): 8.5%
< 100 | < 100 | 24 | CCC(=O)CCCCC[C@H](NC(=O)C(C)(C)N(C)C)c1ncc(-c2cc3ccccc3n(C)c2=O)o1 [Compound 107, (S)-2-(dimethylamino)-2-methyl-N-(1-(5-(1-methyl-2-oxo-1,2-dihydroquinolin-3-yl)oxazol-2-yl)-7-oxononyl)propanamide] | % of benzidine positive cells after 6 days (K562 cells [1]; 40 nM): 2%
